Laboratory results: US9662404B2, “Compositions and methods for the delivery of molecules into live cells” (The Texas A&M University System, priority 2013, dated 2017)

What was measured:
[1] = test system: HeLa cells; assay: Effect of endocytic inhibitors on cytosolic delivery of dTAT; type: cell-based; details: 50 μM amiloride or 200 nM bafilomycin pre-treatment, then 5 μM dTAT and inhibitor
Description: (§1) FIGS. 8A-8C illustrate that dTAT mediates endosomal escape. (FIG. 8A) Effect of endocytic inhibitors on the cellular distribution of dTAT. HeLa cells were pre-treated with 50 μM amiloride or 200 nM bafilomycin for 30 and 20 min respectively, washed, and incubated with 5 μM dTAT and inhibitor. […] Scale bar, 10 μm. […] A schematic illustration of the experimental steps is shown (top). First, cells were incubated with 5 μM DEAC-K9 for 1 h and washed. Inverted monochrome images show a fluorescence punctuate distribution after incubation with DEAC-K9 alone. The same cells were then incubated with 5 μM dTAT for 1 h. Images show a redistribution of DEAC-K9 to the cytosol and nucleus (inhibited by bafilomycin). Scale bars, 10 μm. (FIG. 8C) The endosomolytic activity of dTAT is highly efficient. HeLa cells expressing SNAPH2B were incubated with 5 μM dTAT and 5 μM SNAP-Surface® 488. Fluorescence images show accumulation of SNAP-Surface® 488 in the nucleus. […] Small panels show cytosolic and nuclear fluorescence of TMR. Scale bars, 10 μm.
(§2) To test whether endosomal escape is involved in delivery of dTAT, the effects of amiloride, a macropinocytosis inhibitor, and bafilomycin, an inhibitor of endosomal acidification, were assessed. […] Cells were then washed and incubated with dTAT (FIG. 8B). […] This redistribution was however inhibited by bafilomycin.

[2] = test system: HeLa cells; assay: dTAT-induced cytosolic release of DEAC-K9 trapped inside endosomes; type: cell-based
Description: as §1, §2

[3] = test system: HeLa cells; assay: Quantitative determination of peptide uptake inside cells (bulk fluorescence of cell lysates); type: cell-based; details: acTAT 5-25 μM (FIG. 23)
Description: HeLa cells were seeded in a 48 well dish, grown and washed as described above. For the peptide uptake experiment, each well was incubated for 1 h with varying concentration of acTAT, TAT or dTAT (range: 5-25 μM peptide concentration). For the titration experiment, cells were incubated with dTAT (5 μM) and varying concentrations of DEAC-K9 (range: 1-20 μM). Cells were then washed with PBS and nrL-15 and imaged. Multiple images for each condition were obtained and processed. To lyse cells, nrL-15 was removed from the wells and a total of 100 μL of HeLa cell lysis Buffer (50 mM Tris pH 7.5, 2 mM EDTA, 2 mM DTT, 0.1% Triton X-100) was incubated with cells for 5 min. The cells were lysed and scraped off the dish and pipetted into a 1.5 mL microcentrifuge tube. The cell lysates were centrifuged at 13.2K RPM for 25 min. […] The fluorescence from the cell lysates were measured using a plate reader equipped with a fluorescence module (Ex==525, Em=580-640 nm) (GloMax®-Multi+ Detection System, Promega, Fitchburg, Wis.). For the titration experiment, 80 μL of supernatant was diluted to a total volume of 100 μL and the bulk fluorescence was measured using a SLM-8000C fluorometer (Ex=435 nm, Em=465-475 nm) (SLM Instruments, Bath, UK). The fluorescence emission was averaged and recorded. […] The absorbance at 600 nm was measured using the plate reader. […]

[4] = test system: HeLa cells; assay: Delivery of peptides inside live cells, internalization assessed by fluorescence microscopy; type: cell-based; details: 1 h incubation
Description: The TAT, dTAT and acTAT peptides were incubated for 1 h with several cell lines and internalization was assessed by fluorescence microscopy. […] See also FIG. 5. […] The cell lines HeLa, NIH 3T3, COLO 316 and HaCaT were incubated with 5 μM dTAT for 1 h, washed and imaged. […] After imaging, cells were incubated at 37° C. in a humidified atmosphere containing 5% CO2 for 24 h, washed and imaged again. […] Cell viability was assessed by exclusion of the cell-impermeable nuclear stain SYTOX® Blue at both 1 h and 24 h time point. […] Inverted monochrome (black=fluorescence signal, white-no signal) fluorescence images were made of HeLa cells incubated with 10 or 20 μM of TAT for 1 h.
Live cells from different lines (HeLa, HaCat, NIH 3T3) were grown in Dulbecco's […] (DMEM) (Fisher) supplemented with 10% fetal bovine serum (FBS) (Fisher) and kept at 37° C. in a humidified atmosphere containing 5% CO2. Cells were then seeded in 8-well dishes so that the cells were 80%-90% confluent after 48 h. […] The media (nrL-15) used for incubation lacks cysteine to avoid reduction of the disulfide bond of dTAT. Cells were then incubated with different concentrations of the acTAT, TAT, or dTAT at 37° C. for 1 h. […] Images were collected using a Rolera-MGI Plus back-illuminated EMCCD camera (Qimaging, Surrey, BC, Canada). Images were acquired using bright field imaging and three standard fluorescence filter sets: CFP (Ex=436±10 nm/Em=480±20 nm), RFP (Ex=560±20 nm/Em=630±35 nm), and FITC (Ex=488±10 nm/Em=520±20 nm). The fluorescence intensities of different cells were measured with the SlideBook 4.2 software (Olympus, Center Valley, Pa.) and the average fluorescence intensity was determined for each condition. It has been previously reported that CPPs labeled with fluorophores such as TMR can photosensitize membranes and cause endosomal leakage upon light irradiation. See, Srinivasan, D. et al., “Conjugation to the cell-penetrating peptide TAT potentiates the photodynamic effect of carboxytetramethylrhodamine,” PloS one 6:e17732 (2011) and Muthukrishnan, N., et al., “Synergy Between Cell-Penetrating Peptides and Singlet Oxygen Generators Leads to Efficient Photolysis of Membranes,” Photochemistry and Photobiology 89:625-630 (2012), each incorporated herein by reference in its entirety. […] First, all delivery experiments were performed under conditions of minimal light irradiation (dark room with dim red light). When fluorescence imaging is required, probes (e.g., SNAP surface 488, EGFP) are imaged before dTAT is, thereby minimizing the possible effect of light on endosomal release. For experiments performed with Cre and Hoxb4, cells are not imaged and not exposed to light (not at all for Hoxb4, 12 h after incubation for Cre).

[5] = test system: HeLa transfected with the pCALNL-GFP plasmid; type: cell-based
Description: The number of cells in the images was approximately the same as assessed by bright field microscopy (1,000 cells/experiment, experiments in triplicate, average and standard deviations represented). Scale bars, 100 μM.
To further confirm that functional proteins can penetrate cells upon incubation with dTAT, delivery of Cre recombinase was tested. In this assay, Cre induces recombination of a loxP-STOP-loxP sequence upstream of the egfp gene of a reporter plasmid.

[6] = test system: NIH 3T3 cells; assay: HoxB4 and TAT-HoxB4 delivery, luciferase reporter under a HoxB4-inducible promoter; type: cell-based, murine
Description: Next, the delivery of the therapeutically important transcription factor HoxB4 was tested. HoxB4 can penetrate cells by itself or when fused to the […] TAT and activate transcription. […] NIH 3T3 cells were transfected with a vector containing the luciferase gene under a HoxB4-inducible promoter and with a β-galactosidase reporter as internal control. Cells were incubated with HoxB4 or TAT-HoxB4, in the absence or presence of dTAT for 1.5 h. Cells were then lysed and luciferase expression was assessed by measuring the luminescence of cell lysates normalized to β-galactosidase activity. […] These values are consistent with previously published reports. In contrast, addition of dTAT (3 μM), led to a luciferase induction of 53.1 and 307.4, respectively. The luciferase induction was therefore increased 24-fold in the presence of dTAT for HoxB4 and 61-fold for TAT-HoxB4. […] While increasing the transcriptional output of HoxB4 is valuable, high levels of HoxB4 expression can result in anti-proliferative and transforming effects. Precisely controlling the level and activity of HoxB4 inside cells is therefore important to achieve a desirable biological outcome. Because dTAT appears to act independently of the molecules used for co-incubation in our assays, it was hypothesized that it might be possible to titrate the amount of protein that penetrates cells by varying the protein concentration in the media while keeping dTAT concentration constant. Under this scenario, the efficiency of endosomal escape should remain unaffected but the amount of material released from endosomes should change.
The murine fibroblast cell line (NIH-3T3, stably transfected with the E2A-PBX vector), the luciferase reporter vector, pML (5×HOX/PBX; contains a promoter with binding sites for HOXB4 and PBX) and the β-gal internal control vector used in the following studies were kindly provided by P. Zandstra (University of Toronto, Ontario, Canada). The cells were initially cultured in 100 mm dishes at 37° C. with 5% CO2 in DMEM supplemented with 10% FBS. For experimental purposes, however, cells were seeded in 24-well plates at a density of 5-6×10^4 cells/well for 24 hours. Subsequently, cells were co-transfected with 0.8 μg/mL of pML (5×HOX/PBX) and of the β-gal internal control vector using Lipofectamine 2000. Twelve hours post-transfection, cells were washed and incubated with TAT-HoxB4 or HoxB4 (both at 200 nM, unless otherwise noted; see below) with or without TAT or dTAT in nrL-15 for 90 min. Some cells were also incubated with TAT-mCherry (200 nM) with and without the peptides. After incubation, all cells were washed with PBS and lysed according to the manufacturer's protocol for the reporter lysis buffer (RLB) (Promega). For titration experiments, the same protocol was followed, with the exception that HoxB4 concentrations were varied (25, 50, 100, 150 and 200 nM). In order to quantitate the luciferase reporter activity, 100 μL of luciferase assay reagent (Promega) was added to 20 μL of cell lysate and bioluminescence was immediately measured using a SpectraMaxL luminometer (Sunnyvale, Calif.). […] Absorbance was then measured at 450 nm using the plate reader. Since the absorption spectrum of the chromophore (TMR) conjugated to the peptide used in this study overlaps with that of β-gal, 20 μL of cell lysate containing the peptide was also diluted with 180 μL of the lysis buffer and absorbance values obtained at 450 nm were subtracted from that of the β-gal absorbance values. […]

N=C(N)NC(=O)c1nc(Cl)c(N)nc1N [amiloride]
effect of inhibitor on cytosolic delivery of dTAT [1]: inhibited the cytosolic delivery of dTAT

CO/C1=C\C(C)=C\[C@@H](C)[C@@H](O)[C@@H](C)C/C(C)=C/C=C/[C@H](OC)[C@@H]([C@@H](C)[C@@H](O)[C@H](C)[C@@]2(O)C[C@@H](O)[C@H](C)[C@@H](C(C)C)O2)OC1=O [bafilomycin, reference compound]
effect of bafilomycin on dTAT-induced DEAC-K9 redistribution [2]: inhibited | effect of inhibitor on cytosolic delivery of dTAT [1]: inhibited the cytosolic delivery of dTAT

C(S—CH2CONH2)K(ε-NH-TMR)TAT [acTAT]
endosomal escape when internalized amount is above the dTAT threshold level [3]: does not achieve endosomal escape | cellular localization of peptide fluorescence ([4]; 1-20 μM): punctate distribution

CK(ε-NH-TMR)TAT ({Cys-K(TMR)}-RKKRRQRRRG-NH2) [monomer product: cysteine, TMR-modified lysine, TAT CPP domain … with C-terminal glycine amide]
percentage of EGFP+ cells [5]: 4.8% | cellular localization of peptide fluorescence ([4]; 20 μM): many cells display cytosolic fluorescence | cellular localization of peptide fluorescence ([4]; up to 10 μM): localized inside endosomes

HoxB4: transcription factor with therapeutic potential for in vitro expansion of hematopoietic stem cells
luciferase induction versus HoxB4 concentration ([6]; HoxB4 25-200 nM, dTAT 3 μM): responded linearly with the concentration of HoxB4 in the media | increase in luciferase activity over cells not treated with protein ([6]; protein 200 nM alone, 1.5 h): 2.2 fold | luciferase induction ([6]; protein 200 nM with dTAT 3 μM, 1.5 h): 53.1 fold | increase of luciferase induction in the presence of dTAT over protein alone ([6]; protein 200 nM, dTAT 3 μM): 24 fold
